{
  "source": "patent US7589177B2",
  "about": "“Nucleic acid molecules encoding cyclotide polypeptides and methods of use” (E.I. du Pont de Nemours & Company, priority 2004, dated 2009)",
  "key": {"Panagrellus redivivus": {"system": "Panagrellus redivivus", "assay": "Bioactivity of cyclotide 2 against the nematode Panagrellus redivivus (dose-response, % mortality)", "type": "in vivo", "experimental": "Panagrellus was grown in basal medium and diluted in sterile water to create a stock solution concentration of 200 nematodes/50 μL (the basal media inoculum). Using a multi-channel pipette, 50 μL of the nematode stock solution was added to each well of plates containing the fractionated crude extract. Tests were performed on duplicate samples. Once the activity was established, the HPLC peaks corresponding to the active wells were purified and dose-response assays were done.\nSamples for a dose-response assay were resuspended in 40 μL and 4 wells of 8 μL, 6 μL, 4 μL and 2 μL were prepared in replicates of two. The volume was adjusted with the basal media inoculum to get a final volume of 50 μL and 200 nematodes per well. […] The percent mortality was calculated as ratio of dead nematodes against the total (living and dead) number present in the test wells."}, "[1]": {"system": "Colletotrichum graminaria", "assay": "Dose-response fungal growth inhibition assay", "type": "cell-based", "details": "2500 spores/mL in 1/2 strength PDB, 28° C., scored after 24 and 48 hours", "experimental": "(§1) The anti-fungal activity of cyclotide 2 was tested against the crop pathogens Fusarium verticilloides and Colletotrichum graminaria, and the filamentous fungus Neurospora crassa. To conduct the assay, 100 μL of ½ strength potato dextrose broth (PDB) containing a spore suspension of 2500 spores/mL was added to each well in a 96 well microtiter plate containing dried HPLC fractions. The plates were mixed three times in approximately five minute intervals before incubation at 28° C., and were scored after 24 hours and 48 hours for inhibition of fungal growth. Inhibition of fungal growth was defined as little to no spore germination with no detectable hyphae growth.\n(§2) The dose-response fungal assays were performed by resuspending the lyophilized cyclotide protein sample in 200 μL of a solution which consisted of fungal spores suspended in ½ strength potato dextrose broth (PDB) at a concentration of 2500 spores/mL. The spores were either from Fusarium verticilloides, Colletotrichum graminaria or Neurospora crassa. This resuspended sample represented a starting stock solution. A 0.5× dilution series was then prepared by removing 100 μL of the starting stock solution and adding it to a well in a 96 well tray containing 100 μL of spore suspension (2500 spores/mL), mixing thoroughly and then transferring 100 μL of the newly diluted cyclotide/spore suspension to a fresh well containing 100 μL of spore suspension etc., until all 12 columns of the row of sample in the 96 well tray were prepared. The final volume of the assay was then 100 μL. The plates were mixed three times in approximately five minute intervals before they were incubated at 28° C. and then were scored after 24 and 48 hours for inhibition of fungal growth. Inhibition of fungal growth was defined as little to no spore germination with no detectable hyphae growth."}, "Fusarium verticilloides": {"system": "Fusarium verticilloides", "assay": "Dose-response fungal growth inhibition assay", "type": "cell-based", "details": "2500 spores/mL in 1/2 strength PDB, 28° C., scored after 24 and 48 hours", "experimental": "as §1, §2"}, "Neurospora crassa": {"system": "Neurospora crassa", "assay": "Dose-response fungal growth inhibition assay", "type": "cell-based", "details": "2500 spores/mL in 1/2 strength PDB, 28° C., scored after 24 and 48 hours", "experimental": "as §1, §2"}, "Sclerotinia": {"system": "Sclerotinia", "assay": "Sclerotinia hyphal growth inhibition dose-response assay", "type": "cell-based, Sclerotinia sclerotiorum", "design": "key: 0: no inhibition of fungal growth; 1: slight inhibition; 2: moderate inhibition; 3: extensive inhibition; 4: total inhibition", "details": "48 hours", "experimental": "To test the activity of cyclotide 2 against Sclerotinia, a Sclerotinia test inoculum was started by inoculating ½ strength PDB liquid with a sterile loop of hyphae from a Sclerotinia culture propagated on a ⅛ strength potato dextrose agar (PDA) plate. This liquid inoculum was held at room temperature (22° C.), without shaking, in the dark for 4 days, to allow sufficient growth of hyphae. The resulting suspension was macerated using a sterile polytron tissue grinder. The sample was then diluted with ½ strength PDB to the point of invisibility to the naked eye (observation under microscopy at 40× indicated the presence of 12-15 hyphal fragments per 50 μL aliquot of inoculum). Then, 50 μL of the inoculum was added to each well of a 96 shallow well bioassay plate.\nThe cyclotide sample, following fractionation and lyophilization, was resuspended in 100 μL ½ strength PDB, placed on ice and gently shaken. Then, 50 μL of resuspended sample was added to each corresponding well of the bioassay plate to give a final test volume of 100 μL and […] per well. In the inoculum control wells, 50 μL of inoculum and 50 μL of ½ strength PDB were used, while the media control wells contained 100 μL of ½ strength PDB. The wells were covered with Breathe-Easy membranes (Web Scientific Ltd., Cheshire, U.K.) and placed in the dark on the benchtop.\nFor the dose-response assay, lyophilized cyclotide 2 was resuspended in 40 μL of ½ strength PDB solution. Then, 20 μL of the resuspended sample was pipetted into 4 different wells containing either 8 μL, 6 μL, 4 μL or 2 μL of suspension. The final volume in each well was adjusted to 100 μL with the Sclerotinia test inoculum. The plates were covered with Breathe-Easy membranes (Web Scientific Ltd., Cheshire, U.K.) and placed in the dark on the benchtop."}, "Caenorhabditis elegans [2]": {"system": "Caenorhabditis elegans", "assay": "Nematocidal activity of cyclotide 2 against C. elegans (dose-response, development score)", "type": "in vivo", "design": "key to Replicate 1 Score (nematode development) / Replicate 2 Score (nematode development): 1: no development; 2: little development; 5: medium development; 10: full development", "details": "for Replicate 1 Score (nematode development) / Replicate 2 Score (nematode development): 50 L1-stage nematodes per well", "experimental": "Samples of cyclotide 2 to be used in a dose-response assay were resuspended in 180 μl distilled H2O to create a stock solution of 161.3 μM. The dose-response assay was carried out in 96 well microtiter plates with each dose prepared in replicates of two. Each assay well contained 50 L1-stage nematodes which had been grown in S-medium (100 mM NaCl, 10 mM K citrate, pH 6.0, 50 mM KHPO4, pH 6.0, 3 mM CaCl2, 3 mM MgCl2, […], […], 10 mM MnCl2, 10 mM ZnSO4, 1 mM CuSO4) and had been allowed to feed on overnight cultured E. coli strain OP50, 30 μg/mL tetracycline and 30 μg/mL chloramphenicol. The total assay volume was 100 μL. The assay was scored at days 3 and 4 (Table 3)."}, "Caenorhabditis elegans [3]": {"system": "Caenorhabditis elegans", "assay": "Nematocidal activity of cyclotide 2 against C. elegans (dose-response, development score)", "type": "in vivo", "details": "fractionated crude extract of Viola spp."}},
  "data": [
    {"substance": "cyclotide 2: bioactive cyclotide purified from Viola spp. extract; SEQ ID NO:6 GIPCGESCVWIPCISAAIGCSCKSKVCYRN (cyclo(GIPCGESCVWIPCISAAIGCSCKSKVCYRN); not fully specified (bridges); also: three disulfide bonds (cystine knot), pairings not given here; listed as Viola sp.)", "values": [
      {"measurement": "Scored at 18 hrs (% mortality)", "setting": "Panagrellus redivivus; 10.07 μM", "result": 60, "unit": "%"},
      {"measurement": "Scored at 24 hrs (% mortality)", "setting": "Panagrellus redivivus; 10.07 μM", "result": 74, "unit": "%"},
      {"measurement": "Scored at 18 hrs (% mortality)", "setting": "Panagrellus redivivus; 20.13 μM", "result": ">60", "unit": "%"},
      {"measurement": "Scored at 24 hrs (% mortality)", "setting": "Panagrellus redivivus; 20.13 μM", "result": 78, "unit": "%"},
      {"measurement": "Scored at 18 hrs (% mortality)", "setting": "Panagrellus redivivus; 30.20 μM", "result": 70, "unit": "%"},
      {"measurement": "Scored at 24 hrs (% mortality)", "setting": "Panagrellus redivivus; 30.20 μM", "result": 80, "unit": "%"},
      {"measurement": "Scored at 18 hrs (% mortality)", "setting": "Panagrellus redivivus; 40.27 μM", "result": 85, "unit": "%"},
      {"measurement": "Scored at 24 hrs (% mortality)", "setting": "Panagrellus redivivus; 40.27 μM", "result": 90, "unit": "%"},
      {"measurement": "Scored at 18 hrs (% mortality)", "setting": "Panagrellus redivivus; 50.34 μM", "result": 85, "unit": "%"},
      {"measurement": "Scored at 24 hrs (% mortality)", "setting": "Panagrellus redivivus; 50.34 μM", "result": 95, "unit": "%"},
      {"measurement": "Scored at 18 hrs (% mortality)", "setting": "Panagrellus redivivus; 60.40 μM", "result": 90, "unit": "%"},
      {"measurement": "Scored at 24 hrs (% mortality)", "setting": "Panagrellus redivivus; 60.40 μM", "result": "~100", "unit": "%"},
      {"measurement": "Activity of HPLC peak against Panagrellus redivivus", "setting": "Panagrellus redivivus; fractionated crude extract of Viola spp.", "result": "specifically active"},
      {"measurement": "LD90 concentration (concentration at which 90% of the nematodes are killed)", "setting": "Panagrellus redivivus; within 24 hrs observation time", "result": 40.27, "unit": "µM"},
      {"measurement": "Cyclotide concentration at which total inhibition of fungal growth is observed", "setting": "[1]", "result": 2.5, "unit": "µM"},
      {"measurement": "Cyclotide concentration at which total inhibition of fungal growth is observed", "setting": "Fusarium verticilloides", "result": 10, "unit": "µM"},
      {"measurement": "Cyclotide concentration at which total inhibition of fungal growth is observed", "setting": "Neurospora crassa", "result": 1.25, "unit": "µM"},
      {"measurement": "Score (inhibition of hyphal growth)", "setting": "Sclerotinia; 1.67 μM", "result": 1},
      {"measurement": "Score (inhibition of hyphal growth)", "setting": "Sclerotinia; 3.33 μM", "result": 2},
      {"measurement": "Score (inhibition of hyphal growth)", "setting": "Sclerotinia; 5.0 μM", "result": 4},
      {"measurement": "Score (inhibition of hyphal growth)", "setting": "Sclerotinia; 6.67 μM", "result": 3},
      {"measurement": "Replicate 1 Score (nematode development)", "setting": "Caenorhabditis elegans [2]; 0.81 μM", "result": 10},
      {"measurement": "Replicate 2 Score (nematode development)", "setting": "Caenorhabditis elegans [2]; 0.81 μM", "result": 10},
      {"measurement": "Replicate 1 Score (nematode development)", "setting": "Caenorhabditis elegans [2]; 1.62 μM", "result": 10},
      {"measurement": "Replicate 2 Score (nematode development)", "setting": "Caenorhabditis elegans [2]; 1.62 μM", "result": 10},
      {"measurement": "Replicate 1 Score (nematode development)", "setting": "Caenorhabditis elegans [2]; 3.24 μM", "result": 5},
      {"measurement": "Replicate 2 Score (nematode development)", "setting": "Caenorhabditis elegans [2]; 3.24 μM", "result": 5},
      {"measurement": "Replicate 1 Score (nematode development)", "setting": "Caenorhabditis elegans [2]; 6.48 μM", "result": 2},
      {"measurement": "Replicate 2 Score (nematode development)", "setting": "Caenorhabditis elegans [2]; 6.48 μM", "result": 2},
      {"measurement": "Replicate 1 Score (nematode development)", "setting": "Caenorhabditis elegans [2]; 16.2 μM", "result": 1},
      {"measurement": "Replicate 2 Score (nematode development)", "setting": "Caenorhabditis elegans [2]; 16.2 μM", "result": 1},
      {"measurement": "LD90", "setting": "Caenorhabditis elegans [2]; recorded after day three", "result": 6.48, "unit": "µM"},
      {"measurement": "Activity of HPLC peak against Caenorhabditis elegans", "setting": "Caenorhabditis elegans [3]", "result": "specifically active"}
    ]}
  ]
}
